Reference: patent publication US20240116877A1, “KIT KINASE INHIBITORS AND METHODS OF USE THEREOF” (Deciphera Pharmaceuticals, LLC, priority 2021, published 2024)
Read-outs that look alike come from different tables or passages of the source.

Columns and labels:
c-KIT kinase (uKIT) = c-KIT kinase (uKIT) (Homo sapiens (Human), UniProt P10721); test: Biochemical Assay for uKIT (coupled pyruvate kinase/lactate dehydrogenase assay); settings: Inhibition of biochemical activity of uKIT kinase; 1 mM ATP
How it was run: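 Continuous coupled PK/LDH assay following NADH oxidation at 340 nm for 6 h at 30° C, with 16 nM or 4.36 nM KIT (two constructs), 0.7 mg/mL PE4Y, 1 mM ATP, pH 7.5. Rates from the 2-3 h window converted to percent inhibition versus controls; IC50 fitted.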

Ba/F3 KIT mutant cells = test: Ba/F3 mutant KIT Cell Proliferation Assays (resazurin); format: cell-based; settings: Mus musculus, BaF3
How it was run: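 IC50 values come from resazurin fluorescence (ex 540, em 600) after 5 h dye exposure, added as a 440 μM solution. Cells were IL-3-independent Ba/F3 expressing mutant KIT from a lentiviral vector, puromycin-selected.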

GIST 430 cells = test: GIST 430 Cell Proliferation Assay (resazurin); format: cell-based; settings: Homo sapiens; GIST430 cell proliferation
Experimental: GIST 430 Cell Proliferation Assay
A serial dilution of test compound was dispensed into a 96-well black clear bottom plate (Corning, Corning, NY). Five thousand cells were added per well in 200 μL complete growth medium. Plates were incubated for 115 h at 37 degrees Celsius, 5% CO2, 95% humidity. At the end of the incubation period 40 μL of a 440 μM solution of resazurin (Sigma, St. Louis, MO) in PBS was added to each well and incubated for an additional 5 h at 37 degrees Celsius, 5% CO2, 95% humidity. Plates were read on a Synergy2 reader (Biotek, Winooski, VT) using an excitation of 540 nm and an emission of 600 nm. Data was analyzed using Prism software (Graphpad, San Diego, CA) to calculate IC50 values.

[1] = Ba/F3 KIT AYdup-D816G mutant cell proliferation, read-out: AYdup-D816G IC50
[2] = Ba/F3 KIT AYdup-V654A mutant cell proliferation, read-out: AYdup-V654A IC50
[3] = Ba/F3 KIT exon11del-V654A mutant cell proliferation, read-out: exon11del-V654A IC50
[4] = Ba/F3 KIT exon11del-Y823D mutant cell proliferation, read-out: exon11del-Y823D IC50
[5] = Ba/F3 KIT AYdup mutant cell proliferation, read-out: AYdup IC50

c-KIT kinase (uKIT), sequence (P10721 other isoform, or with tags, fused parts or gaps): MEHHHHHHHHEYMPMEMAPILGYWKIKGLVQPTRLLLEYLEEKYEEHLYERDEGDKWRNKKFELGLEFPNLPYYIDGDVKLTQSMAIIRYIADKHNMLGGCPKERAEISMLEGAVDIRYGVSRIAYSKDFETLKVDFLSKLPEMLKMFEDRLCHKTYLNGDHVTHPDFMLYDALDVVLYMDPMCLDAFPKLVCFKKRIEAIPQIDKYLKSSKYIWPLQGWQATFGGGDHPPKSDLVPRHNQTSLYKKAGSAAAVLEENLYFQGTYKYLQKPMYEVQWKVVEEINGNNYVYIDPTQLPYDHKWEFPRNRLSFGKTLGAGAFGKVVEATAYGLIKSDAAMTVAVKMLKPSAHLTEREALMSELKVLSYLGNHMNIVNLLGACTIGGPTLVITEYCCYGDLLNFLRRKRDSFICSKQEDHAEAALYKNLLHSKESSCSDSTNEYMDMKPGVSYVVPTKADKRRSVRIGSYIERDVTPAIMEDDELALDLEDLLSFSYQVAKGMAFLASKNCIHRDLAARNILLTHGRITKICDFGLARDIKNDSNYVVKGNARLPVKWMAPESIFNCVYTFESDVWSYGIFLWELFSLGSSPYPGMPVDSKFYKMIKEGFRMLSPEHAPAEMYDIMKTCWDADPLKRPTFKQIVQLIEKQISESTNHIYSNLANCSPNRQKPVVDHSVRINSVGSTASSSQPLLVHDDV

Compound	IC50 (c-KIT kinase (uKIT))	IC50 (Ba/F3 KIT mutant cells; [1])	IC50 (Ba/F3 KIT mutant cells; [2])	IC50 (Ba/F3 KIT mutant cells; [3])	IC50 (Ba/F3 KIT mutant cells; [4])	IC50 (GIST 430 cells)	IC50 (Ba/F3 KIT mutant cells; [5])
COCCOc1cc(F)c2c(Nc3ccc(NC(=O)NC4CCC(F)(F)CC4)cc3)ncnc2c1 [Example 33]	10 to 100 nM	10 to 100 nM	10 to 100 nM	100 to 1000 nM	100 to 1000 nM	10 to 100 nM	–
COCCOc1cc(F)c2c(Nc3ccc(NC(=O)NC4CCC(C)(C)C4)cc3)ncnc2c1 (stereo not drawn) [Example 34]	≤ 10 nM	≤ 10 nM	10 to 100 nM	≤ 10 nM	10 to 100 nM	10 to 100 nM	–
COCCOc1cc(F)c2c(Nc3ccc(NC(=O)NCCC4(C#N)CC4)cc3)ncnc2c1 [Example 35]	≤ 10 nM	10 to 100 nM	10 to 100 nM	10 to 100 nM	10 to 100 nM	10 to 100 nM	≤ 10 nM
COCCOc1cc(F)c2c(Nc3ccc(NC(=O)N[C@H]4CC[C@@H](C(F)(F)F)CC4)cc3)ncnc2c1 [Example 36]	≤ 10 nM	10 to 100 nM	10 to 100 nM	≤ 10 nM	100 to 1000 nM	10 to 100 nM	–
COC(C)(C)CCNC(=O)Nc1ccc(Nc2ncnc3cc(OCCN4CCOCC4)cc(F)c23)cc1 [Example 37]	10 to 100 nM	10 to 100 nM	10 to 100 nM	10 to 100 nM	10 to 100 nM	≤ 10 nM	≤ 10 nM
COCCOc1cc(F)c2c(Nc3ccc(NC(=O)NCCOC(C)(C)C)cc3)ncnc2c1 [Example 38]	10 to 100 nM	≤ 10 nM	10 to 100 nM	≤ 10 nM	≤ 10 nM	≤ 10 nM	≤ 10 nM
CC(C)(F)CCNC(=O)Nc1ccc(Nc2ncnc3cc(OCCN4CCOCC4)cc(F)c23)cc1 [Example 39]	≤ 10 nM	10 to 100 nM	10 to 100 nM	10 to 100 nM	10 to 100 nM	≤ 10 nM	≤ 10 nM
COCCOc1cc(F)c2c(Nc3ccc(NC(=O)CC4CCN(C)CC4)cc3)ncnc2c1 [Example 40]	> 1000 nM	–	–	> 1000 nM	–	> 1000 nM	–
COCCOc1cc(F)c2c(Nc3ccc(NC(=O)CC4CCC(F)(F)CC4)cc3)ncnc2c1 [Example 41]	≤ 10 nM	10 to 100 nM	10 to 100 nM	10 to 100 nM	10 to 100 nM	10 to 100 nM	≤ 10 nM
COCCOc1cc(F)c2c(Nc3ccc(NC(=O)NCCOC(F)(F)F)cc3)ncnc2c1 [Example 42]	≤ 10 nM	10 to 100 nM	10 to 100 nM	10 to 100 nM	10 to 100 nM	10 to 100 nM	≤ 10 nM
COCCOc1cc(F)c2c(Nc3ccc(NC(=O)C4(C(=O)NCC(C)(C)C)CC4)cc3)ncnc2c1 [Example 44]	10 to 100 nM	100 to 1000 nM	100 to 1000 nM	100 to 1000 nM	100 to 1000 nM	100 to 1000 nM	10 to 100 nM
COCCOc1cc(F)c2c(Nc3ccc(NC(=O)CCCC(C)(C)F)cc3)ncnc2c1 [Example 45]	≤ 10 nM	10 to 100 nM	10 to 100 nM	10 to 100 nM	100 to 1000 nM	≤ 10 nM	≤ 10 nM
COCCOc1cc(F)c2c(Nc3ccc(NC(=O)OCCC(C)(C)C#N)cc3)ncnc2c1 [Example 46]	≤ 10 nM	10 to 100 nM	100 to 1000 nM	10 to 100 nM	100 to 1000 nM	10 to 100 nM	≤ 10 nM
COCCOc1cc(F)c2c(Nc3ccc(NC(=O)COCCC(C)C)cc3)ncnc2c1 [Example 47]	≤ 10 nM	10 to 100 nM	10 to 100 nM	10 to 100 nM	10 to 100 nM	≤ 10 nM	≤ 10 nM
COCCOc1cc(F)c2c(Nc3ccc(NC(=O)COCC(F)(F)F)cc3)ncnc2c1 [Example 48]	100 to 1000 nM	100 to 1000 nM	100 to 1000 nM	100 to 1000 nM	100 to 1000 nM	100 to 1000 nM	10 to 100 nM
COCCOc1cc(F)c2c(Nc3ccc(NC(=O)COCC(C)C)cc3)ncnc2c1 [Example 49]	≤ 10 nM	10 to 100 nM	100 to 1000 nM	10 to 100 nM	100 to 1000 nM	10 to 100 nM	≤ 10 nM
COCCOc1cc(F)c2c(Nc3ccc(NC(=O)C4(C(=O)N(C)CC(C)(C)C)CC4)cc3)ncnc2c1 [Example 50]	100 to 1000 nM	> 1000 nM	100 to 1000 nM	> 1000 nM	> 1000 nM	100 to 1000 nM	100 to 1000 nM
COCCOc1cc(F)c2c(Nc3ccc(NC(=O)CC(=O)N(C)CC(C)(C)C)cc3)ncnc2c1 [Example 51]	10 to 100 nM	10 to 100 nM	10 to 100 nM	10 to 100 nM	10 to 100 nM	≤ 10 nM	10 to 100 nM
COCCOc1cc(F)c2c(Nc3ccc(NC(=O)OCCC(C)(C)F)cc3)ncnc2c1 [Example 52]	10 to 100 nM	10 to 100 nM	100 to 1000 nM	10 to 100 nM	100 to 1000 nM	10 to 100 nM	≤ 10 nM
COCCOc1cc(F)c2c(Nc3ccc(NC(=O)CCN4CCCC4=O)cc3)ncnc2c1 [Example 53]	> 1000 nM	> 1000 nM	> 1000 nM	> 1000 nM	–	100 to 1000 nM	100 to 1000 nM
COCCOc1cc(F)c2c(Nc3ccc(NC(=O)NCCN4CCCC4=O)cc3)ncnc2c1 [Example 54]	10 to 100 nM	100 to 1000 nM	100 to 1000 nM	100 to 1000 nM	100 to 1000 nM	10 to 100 nM	10 to 100 nM
COCCOc1cc(F)c2c(Nc3ccc(NC(=O)C(C)NC(=O)CC(C)C)cc3)ncnc2c1 (stereo not drawn) [Example 55]	100 to 1000 nM	–	100 to 1000 nM	10 to 100 nM	100 to 1000 nM	100 to 1000 nM	–
COCCOc1cc(F)c2c(Nc3ccc(NC(=O)COCC4CCCC4)cc3)ncnc2c1 [Example 56]	≤ 10 nM	–	10 to 100 nM	10 to 100 nM	10 to 100 nM	≤ 10 nM	–
COCCOc1cc(F)c2c(Nc3ccc(NC(=O)COCC4CC4)cc3)ncnc2c1 [Example 57]	100 to 1000 nM	–	100 to 1000 nM	10 to 100 nM	> 1000 nM	10 to 100 nM	–
COCCOc1cc(F)c2c(Nc3ccc(NC(=O)COCC4CCCO4)cc3)ncnc2c1 (stereo not drawn) [Example 58]	10 to 100 nM	–	100 to 1000 nM	100 to 1000 nM	> 1000 nM	10 to 100 nM	–
